pEC50, pIC50: −log10 of the molar value. Read-outs that look alike come from different tables or passages of the source.
Experiments:
[1] = test system: Differentiated U937 cells; assay: MTT assay (loss of cell viability); format: cell-based, human; settings: for MTT 4 hr / MTT 24 hr: loss of cell viability, 10 ug/ml
Procedure: Differentiated U937 cells were pre-incubated with compound for 4 hrs in 5% FCS or 10% FCS for 24 hrs and 72 hr. The supernatant was replaced with 200 ul of new media and 10 μL of MTT stock solution (5 mg/mL) added to each well. After 1 hr incubation, the media were removed, 200 μL of DMSO added to each well and the plates were shaken lightly for 1 hr prior to reading the absorbance at 550 nm.
The percentage loss of cell viability was calculated for each well relative to vehicle (0.5% DMSO)-treatment. Consequently an apparent increase in cell viability for drug treatment relative to vehicle is tabulated as a negative percentage.

[2] = target: T1, recombinant, phosphorylated p38 MAPK gamma (MAPK12:Millipore) (Homo sapiens, UniProt P53778); assay: Enzyme inhibition assay (FRET, Z-LYTE), p38 MAPK gamma; format: biochemical; settings: read-out: IC50 values P38γ enzyme
T1 construct: purchased Millipore
T1 sequence (P53778 1-367): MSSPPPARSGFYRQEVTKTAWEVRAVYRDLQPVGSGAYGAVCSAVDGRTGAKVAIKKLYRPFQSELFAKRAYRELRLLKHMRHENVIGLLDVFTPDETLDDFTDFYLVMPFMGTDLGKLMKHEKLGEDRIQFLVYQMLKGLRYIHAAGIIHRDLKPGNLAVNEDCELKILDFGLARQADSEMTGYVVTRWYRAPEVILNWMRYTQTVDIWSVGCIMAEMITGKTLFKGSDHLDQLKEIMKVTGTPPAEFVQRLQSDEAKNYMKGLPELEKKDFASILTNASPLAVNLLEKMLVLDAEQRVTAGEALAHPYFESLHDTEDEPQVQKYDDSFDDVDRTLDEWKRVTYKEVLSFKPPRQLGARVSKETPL
Procedure: The enzyme inhibitory activity of compound was determined by fluorescence resonance energy transfer (FRET) using synthetic peptides labelled with both donor and acceptor fluorophores (Z-LYTE, Invitrogen). Briefly, recombinant, phosphorylated p38 MAPK gamma (MAPK12:Millipore) was diluted in HEPES buffer, mixed with compound at desired final concentrations and incubated for two hours at room temperature. The FRET peptide (2 μM) and ATP (100 uM) were next added to the enzyme/compound mixture and incubated for one hour. Development reagent (protease) was added for one hour prior to detection in a fluorescence microplate reader. The site-specific protease only cleaves non-phosphorylated peptide and eliminates the FRET signal. Phosphorylation levels of each reaction were calculated using the ratio of coumarin emission (donor) over fluorescein emission (acceptor) with high ratios indicating high phosphorylation and low ratios, low phosphorylation levels.

[3] = test system: LPS-induced TNFα release in differentiated U937 cells; assay: LPS-induced TNF alpha release in differentiated U937 cells; format: cell-based
Procedure: U937 cells, human monocytic cell line, were differentiated to macrophage-type cells by incubation with phorbol myristate acetate (PMA; 100 ng/ml) for 48 to 72 hours. Where appropriate, cells were pre-incubated with final concentrations of compound for 2 hrs. Cells were then stimulated with 0.1 μg/mL of LPS (from E. coli: O111:B4, Sigma) for 4 hrs, and the supernatant collected for determination of TNFα concentration by sandwich ELISA (Duo-set, R&D systems).

[4] = test system: LPS-induced TNFα release in THP-1 cells; assay: LPS-induced TNF alpha release in THP-1 cells; format: cell-based; settings: Homo sapiens
Procedure: THP-1, human monocytic cell line, was also used for this assay. THP-1 cells were stimulated with 1 μg/ml of LPS (from E. coli: O111:B4, Sigma) for 4 hrs, and the supernatant collected for determination of TNFα concentration.
THP-1 cells, a human monocytic cell line, were stimulated with 1 μg/ml of LPS (from E. coli; O111:B4, Sigma) for 4 hr and the supernatant collected for determination of TNFα concentration by sandwich ELISA (Duo-set, R&D systems). The inhibition of TNFα production was calculated at each concentration by comparison with vehicle control.

[5] = target: T2, p38 MAPK alpha (MAPK14: Invitrogen) (Homo sapiens, UniProt Q16539); assay: Enzyme inhibition assay (FRET, Z-LYTE), p38 MAPK alpha, via activation of MAPKAP-K2; format: biochemical; settings: read-out: IC50 values p38α enzyme
T2 construct: purchased Invitrogen
T2 sequence (Q16539 whole entry): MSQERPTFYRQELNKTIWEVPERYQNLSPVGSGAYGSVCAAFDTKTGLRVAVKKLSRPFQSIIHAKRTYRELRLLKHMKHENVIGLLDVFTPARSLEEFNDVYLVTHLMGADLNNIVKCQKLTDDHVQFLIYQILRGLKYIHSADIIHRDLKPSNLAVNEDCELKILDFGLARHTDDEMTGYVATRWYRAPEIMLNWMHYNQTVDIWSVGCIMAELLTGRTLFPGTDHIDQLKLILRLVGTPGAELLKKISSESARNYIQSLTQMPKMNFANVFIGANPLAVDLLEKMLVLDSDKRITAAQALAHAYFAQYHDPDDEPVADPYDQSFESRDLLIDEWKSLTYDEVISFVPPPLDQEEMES

[6] = Homo sapiens; read-out: R-EC50 values d-U937 cells
[7] = THP-1, LPS-induced TNFα release, read-out: IC50 values THP-1 cells
[8] = Homo sapiens, read-out: R-EC50 values d-U937 cells
[9] = THP-1, read-out: IC50 values THP-1 cells

SMILES	Differentiated U937 cells MTT Assay ([1]; 4, 24 h (10 μg/ml))	MTT 4 hr [1]	MTT 24 hr [1]	pIC50 [2]	pEC50 [3, 6]	pIC50 [4, 7]	pIC50 [5]	pEC50 [3, 8]	pIC50 [4, 9]
COCC(=O)Nc1cc(COc2ccc(NC(=O)Nc3cc(C(C)(C)C)nn3-c3ccc(C)cc3)c3ccccc23)ccn1 [Example 1, N-(4-((4-(3-(3-tert-Butyl-1-p-tolyl-1H-pyrazol-5-yl)ureido)naphthalen-1-yloxy)methyl)pyridin-2-yl)-2-methoxyacetamide]	Negative^2	− (− <30%)	− (− <30%)						
CNC(=O)Nc1cc(COc2ccc(NC(=O)Nc3cc(C(C)(C)C)nn3-c3ccc(C)cc3)c3ccccc23)ccn1 [Example 2, Methyl 4-((4-(3-(3-tert-butyl-1-p-tolyl-1H-pyrazol-5-yl)ureido)naphthalen-1-yloxy)methyl)pyridin-2-ylurea]		− (− <30%)	− (− <30%)	> 6.30	> 6.30	> 6.30			
Cc1ccc(-n2nc(C(C)(C)C)cc2NC(=O)Nc2ccc(OCc3ccnc(NC(=O)C4CCOCC4)c3)c3ccccc23)cc1 [Example 3, N-(4-((4-(3-(3-tert-Butyl-1-p-tolyl-1H-pyrazol-5-yl)ureido)naphthalen-1-yloxy)methyl)pyridin-2-yl)tetrahydro-2H-pyran-4-carboxamide]		− (− <30%)	+ (+ >30% at 10 ug/ml)	> 6.30	> 8.00	> 8.00	> 8.00		
CO[C@@H](C)C(=O)Nc1cc(COc2ccc(NC(=O)Nc3cc(C(C)(C)C)nn3-c3ccc(C)cc3)c3ccccc23)ccn1 [Example 4, (S)-N-(4-((4-(3-(3-tert-Butyl-1-p-tolyl-1H-pyrazol-5-yl)ureido)naphthalen-1-yloxy)methyl)pyridin-2-yl)-2-methoxypropanamide]		− (− <30%)	− (− <30%)	> 6.30	> 8.00	> 8.00	> 6.30		
CO[C@H](C)C(=O)Nc1cc(COc2ccc(NC(=O)Nc3cc(C(C)(C)C)nn3-c3ccc(C)cc3)c3ccccc23)ccn1 [Example 5, (R)-N-(4-((4-(3-(3-tert-Butyl-1-p-tolyl-1H-pyrazol-5-yl)ureido)naphthalen-1-yloxy)methyl)pyridin-2-yl)-2-methoxypropanamide]		− (− <30%)	+ (+ >30% at 10 ug/ml)	> 5.30	> 8.00	> 8.00	> 8.00		
Cc1ccc(-n2nc(C(C)(C)C)cc2NC(=O)Nc2ccc(OCc3ccnc(NC(=O)CO)c3)c3ccccc23)cc1 [Example 7, N-(4-((4-(3-(3-tert-Butyl-1-p-tolyl-1H-pyrazol-5-yl)ureido)naphthalen-1-yloxy)methyl)pyridin-2-yl)-2-hydroxyacetamide]		− (− <30%)	+ (+ >30% at 10 ug/ml)	> 6.30	> 8.00	> 8.00	> 8.00		
CNC(C)(C)C(=O)Nc1cc(COc2ccc(NC(=O)Nc3cc(C(C)(C)C)nn3-c3ccc(C)cc3)c3ccccc23)ccn1 [Example 8, N-(4-((4-(3-(3-tert-Butyl-1-p-tolyl-1H-pyrazol-5-yl)ureido)naphthalen-1-yloxy)methyl)pyridin-2-yl)-2-methyl-2-(methylamino)propanamide]		− (− <30%)	+ (+ >30% at 10 ug/ml)	> 5.30	> 8.00	> 8.00	> 6.30		
CN[C@@H](C)C(=O)Nc1cc(COc2ccc(NC(=O)Nc3cc(C(C)(C)C)nn3-c3ccc(C)cc3)c3ccccc23)ccn1 [Example 9, (S)-N-(4-((4-(3-(3-tert-Butyl-1-p-tolyl-1H-pyrazol-5-yl)ureido)naphthalen-1-yloxy)methyl)pyridin-2-yl)-2-(methylamino)propanamide]		− (− <30%)	+ (+ >30% at 10 ug/ml)	> 6.30	> 8.00	> 8.00	> 8.00		
Cc1ccc(-n2nc(C(C)(C)C)cc2NC(=O)Nc2ccc(OCc3ccnc(NC(=O)[C@H]4COCCN4)c3)c3ccccc23)cc1 [Example 10, (R)-N-(4-((4-(3-(3-tert-Butyl-1-p-tolyl-1H-pyrazol-5-yl)ureido)naphthalen-1-yloxy)methyl)pyridin-2-yl)morpholine-3-carboxamide]		− (− <30%)	− (− <30%)	> 5.30	> 8.00	> 8.00	> 6.30		
COCCNC(=O)CNC(=O)Nc1cc(COc2ccc(NC(=O)Nc3cc(C(C)(C)C)nn3-c3ccc(C)cc3)c3ccccc23)ccn1 [Example 15, 2-(3-(4-((4-(3-(3-tert-Butyl-1-p-tolyl-1H-pyrazol-5-yl)ureido)naphthalen-1-yloxy)methyl)pyridin-2-yl)ureido)-N-(2-methoxyethyl)acetamide]		− (− <30%)	− (− <30%)	> 6.30	> 6.30	> 8.00			
COCCNCC(=O)Nc1cc(COc2ccc(NC(=O)Nc3cc(C(C)(C)C)nn3-c3ccc(C)cc3)c3ccccc23)ccn1 [Example 25, N-(4-((4-(3-(3-tert-Butyl-1-p-tolyl-1H-pyrazol-5-yl)ureido)naphthalen-1-yloxy)methyl)pyridin-2-yl)-2-(2-methoxyethylamino)acetamide]		− (− <30%)	− (− <30%)	> 6.30	> 8.00	> 8.00			
CNC(=O)Nc1cnccc1COc1ccc(NC(=O)Nc2cc(C(C)(C)C)nn2-c2ccc(C)cc2)c2ccccc12 [Example 34, 1-(4-((3-Methylureidopyridin-4-yl)methoxy)naphthalen-1-yl)-3-(3-tert-butyl-1-p-tolyl-1H-pyrazol-5-yl)urea]		+ (+ >30% at 10 ug/ml)	− (− <30%)	> 5.30	> 6.30	> 6.30			
COCC(=O)Nc1cnccc1COc1ccc(NC(=O)Nc2cc(C(C)(C)C)nn2-c2ccc(C)cc2)c2ccccc12 [Example 35, N-(4-((4-(3-(3-tert-Butyl-1-p-tolyl-1H-pyrazol-5-yl)ureido)naphthalen-1-yloxy)methyl)pyridin-3-yl)-2-methoxyacetamide]		− (− <30%)	− (− <30%)	< 5.30					
COCCOCC(=O)Nc1cnccc1COc1ccc(NC(=O)Nc2cc(C(C)(C)C)nn2-c2ccc(C)cc2)c2ccccc12 [Example 36, N-(4-((4-(3-(3-tert-Butyl-1-p-tolyl-1H-pyrazol-5-yl)ureido)naphthalen-1-yloxy)methyl)pyridin-3-yl)-2-(2-methoxyethoxy)acetamide]		− (− <30%)	− (− <30%)	< 5.30				> 8.00	> 6.30
Cc1ccc(-n2nc(C(C)(C)C)cc2NC(=O)Nc2ccc(Oc3ccnc(NC(=O)CS(C)(=O)=O)c3)c3ccccc23)cc1 [Example 51, N-(4-(4-(3-(3-tert-Butyl-1-p-tolyl-1H-pyrazol-5-yl)ureido)naphthalen-1-yloxy)pyridin-2-yl)-2-(methylsulfonyl)acetamide]		− (− <30%)	+ (+ >30% at 10 ug/ml)					> 8.00	> 8.00

From patent US8299073B2, “P38 MAP kinase inhibitors” (Respivert Ltd., priority 2008, dated 2012)
